{"source": "patent US9695133B2", "about": "“Quinazolinone-based oncogenic-RAS-selective lethal compounds and their use” (THE TRUSTEES OF COLUMBIA UNIVERSITY IN THE CITY OF NEW YORK, priority 2012, dated 2017)", "test_system": "HT-1080 cells", "assay": "Metabolite profiling (LC-MS/MS) upon erastin treatment", "assay_type": "cell-based, human", "settings": "5 μg/mL erastin 5 h", "experimental": "2 million HT-1080 cells were seeded in 10 cm culture dishes. […] 4 mL of cold 80% methanol was added to the cell monolayer to extract polar metabolites using a cell scraper. The cell lysate/methanol mixture was transferred to a 15 mL tube and centrifuged at 2,000×g at 4° C. for 10 minutes to pellet debris and proteins. The supernatant was transferred to a new tube and stored at −80° C. for liquid chromatography-mass spectrometry/mass spectrometry (LC-MS/MS) analysis. For lipid extract preparation, 3 mL of cold 100% isopropanol was added to the cell monolayer to scrape out cells. The resulting cell lysate/isopropanol mixture was transferred to a new 15 mL tube and centrifuged at 2,000×g at 4° C. for 10 minutes. The cleared supernatant was transferred to a new tube and stored at −20° C. for LC-MS/MS analysis.\nThe metabolite extract was subjected to LC-MS/MS analysis to determine the quantity of each metabolite in each sample.", "data": [{"smiles": "CCOc1ccccc1-n1c(C(C)N2CCN(C(=O)COc3ccc(Cl)cc3)CC2)nc2ccccc2c1=O", "note": "(stereo not drawn) [erastin]", "values": [{"measurement": "2-aminodipate Erastin/DMSO", "value": 0.6644}, {"measurement": "2-aminodipate log2 (Erastin/DMSO)", "value": "−0.59"}, {"measurement": "2′-deoxyadenosine Erastin/DMSO", "value": 0.6549}, {"measurement": "2′-deoxyadenosine log2 (Erastin/DMSO)", "value": "−0.6107"}, {"measurement": "2′-deoxycytidine Erastin/DMSO", "value": 1.737}, {"measurement": "2′-deoxycytidine log2 (Erastin/DMSO)", "value": 0.7968}, {"measurement": "4-hydroxybenzoate Erastin/DMSO", "value": 0.9815}, {"measurement": "4-hydroxybenzoate log2 (Erastin/DMSO)", "value": "−0.02693"}, {"measurement": "4-pyridoxate Erastin/DMSO", "value": 1}, {"measurement": "4-pyridoxate log2 (Erastin/DMSO)", "value": 0.0001853}, {"measurement": "5-HIAA (first entry) Erastin/DMSO", "value": 0.7283}, {"measurement": "5-HIAA (first entry) log2 (Erastin/DMSO)", "value": "−0.4574"}, {"measurement": "5-HIAA (second entry) Erastin/DMSO", "value": 1.231}, {"measurement": "5-HIAA (second entry) log2 (Erastin/DMSO)", "value": 0.2997}, {"measurement": "5-hydroxytryptophan Erastin/DMSO", "value": 0.8725}, {"measurement": "5-hydroxytryptophan log2 (Erastin/DMSO)", "value": "−0.1967"}, {"measurement": "ADMA Erastin/DMSO", "value": 0.8585}, {"measurement": "ADMA log2 (Erastin/DMSO)", "value": "−0.2201"}, {"measurement": "ADMA/SDMA Erastin/DMSO", "value": 0.8985}, {"measurement": "ADMA/SDMA log2 (Erastin/DMSO)", "value": "−0.1543"}, {"measurement": "ADP Erastin/DMSO", "value": 0.9616}, {"measurement": "ADP log2 (Erastin/DMSO)", "value": "−0.05643"}, {"measurement": "AMP Erastin/DMSO", "value": 1.071}, {"measurement": "AMP log2 (Erastin/DMSO)", "value": 0.09933}, {"measurement": "Anthranilic acid Erastin/DMSO", "value": 1.242}, {"measurement": "Anthranilic acid log2 (Erastin/DMSO)", "value": 0.3128}, {"measurement": "C14:0 CE Erastin/DMSO", "value": 0.7897}, {"measurement": "C14:0 CE log2 (Erastin/DMSO)", "value": "−0.3407"}, {"measurement": "C14:0 LPC Erastin/DMSO", "value": 3.625}, {"measurement": "C14:0 LPC log2 (Erastin/DMSO)", "value": 1.858}, {"measurement": "C14:0 SM Erastin/DMSO", "value": 1.062}, {"measurement": "C14:0 SM log2 (Erastin/DMSO)", "value": 0.08617}, {"measurement": "C16:0 CE Erastin/DMSO", "value": 0.9643}, {"measurement": "C16:0 CE log2 (Erastin/DMSO)", "value": "−0.05248"}, {"measurement": "C16:0 LPC Erastin/DMSO", "value": 3.818}, {"measurement": "C16:0 LPC log2 (Erastin/DMSO)", "value": 1.933}, {"measurement": "C16:0 SM Erastin/DMSO", "value": 1.03}, {"measurement": "C16:0 SM log2 (Erastin/DMSO)", "value": 0.04281}, {"measurement": "C16:1 CE Erastin/DMSO", "value": 0.9321}, {"measurement": "C16:1 CE log2 (Erastin/DMSO)", "value": "−0.1015"}, {"measurement": "C16:1 LPC Erastin/DMSO", "value": 5.386}, {"measurement": "C16:1 LPC log2 (Erastin/DMSO)", "value": 2.429}, {"measurement": "C16:1 SM Erastin/DMSO", "value": 0.9808}, {"measurement": "C16:1 SM log2 (Erastin/DMSO)", "value": "−0.02798"}, {"measurement": "C18:0 CE Erastin/DMSO", "value": 1.01}, {"measurement": "C18:0 CE log2 (Erastin/DMSO)", "value": 0.01367}, {"measurement": "C18:0 LPC Erastin/DMSO", "value": 3.335}, {"measurement": "C18:0 LPC log2 (Erastin/DMSO)", "value": 1.738}, {"measurement": "C18:0 SM Erastin/DMSO", "value": 1.018}, {"measurement": "C18:0 SM log2 (Erastin/DMSO)", "value": 0.02559}, {"measurement": "C18:1 CE Erastin/DMSO", "value": 0.9198}, {"measurement": "C18:1 CE log2 (Erastin/DMSO)", "value": "−0.1206"}, {"measurement": "C18:1 LPC Erastin/DMSO", "value": 3.744}, {"measurement": "C18:1 LPC log2 (Erastin/DMSO)", "value": 1.904}, {"measurement": "C18:1 SM Erastin/DMSO", "value": 0.925}, {"measurement": "C18:1 SM log2 (Erastin/DMSO)", "value": "−0.1125"}, {"measurement": "C18:2 CE Erastin/DMSO", "value": 0.9483}, {"measurement": "C18:2 CE log2 (Erastin/DMSO)", "value": "−0.07651"}, {"measurement": "C18:3 CE Erastin/DMSO", "value": 0.9277}, {"measurement": "C18:3 CE log2 (Erastin/DMSO)", "value": "−0.1083"}, {"measurement": "C20:3 CE Erastin/DMSO", "value": 0.7864}, {"measurement": "C20:3 CE log2 (Erastin/DMSO)", "value": "−0.3467"}, {"measurement": "C20:4 CE Erastin/DMSO", "value": 0.9141}, {"measurement": "C20:4 CE log2 (Erastin/DMSO)", "value": "−0.1297"}, {"measurement": "C20:4 LPC Erastin/DMSO", "value": 8.518}, {"measurement": "C20:4 LPC log2 (Erastin/DMSO)", "value": 3.091}, {"measurement": "C20:5 CE Erastin/DMSO", "value": 0.8407}, {"measurement": "C20:5 CE log2 (Erastin/DMSO)", "value": "−0.2504"}, {"measurement": "C22:0 SM Erastin/DMSO", "value": 0.96}, {"measurement": "C22:0 SM log2 (Erastin/DMSO)", "value": "−0.0589"}, {"measurement": "C22:1 SM Erastin/DMSO", "value": 0.8374}, {"measurement": "C22:1 SM log2 (Erastin/DMSO)", "value": "−0.256"}, {"measurement": "C22:6 CE Erastin/DMSO", "value": 0.7847}, {"measurement": "C22:6 CE log2 (Erastin/DMSO)", "value": "−0.3498"}, {"measurement": "C22:6 LPC Erastin/DMSO", "value": 8.456}, {"measurement": "C22:6 LPC log2 (Erastin/DMSO)", "value": 3.08}, {"measurement": "C24:0 SM Erastin/DMSO", "value": 0.9621}, {"measurement": "C24:0 SM log2 (Erastin/DMSO)", "value": "−0.05567"}, {"measurement": "C24:1 SM Erastin/DMSO", "value": 0.8933}, {"measurement": "C24:1 SM log2 (Erastin/DMSO)", "value": "−0.1627"}, {"measurement": "C30:0 PC Erastin/DMSO", "value": 0.8954}, {"measurement": "C30:0 PC log2 (Erastin/DMSO)", "value": "−0.1594"}, {"measurement": "C30:1 PC Erastin/DMSO", "value": 1.014}, {"measurement": "C30:1 PC log2 (Erastin/DMSO)", "value": 0.01988}, {"measurement": "C30:2 PC Erastin/DMSO", "value": 0.9467}, {"measurement": "C30:2 PC log2 (Erastin/DMSO)", "value": "−0.07901"}, {"measurement": "C32:0 PC Erastin/DMSO", "value": 0.7948}, {"measurement": "C32:0 PC log2 (Erastin/DMSO)", "value": "−0.3314"}, {"measurement": "C32:0 PE Erastin/DMSO", "value": 0.9821}, {"measurement": "C32:0 PE log2 (Erastin/DMSO)", "value": "−0.0261"}, {"measurement": "C32:1 DAG Erastin/DMSO", "value": 1.055}, {"measurement": "C32:1 DAG log2 (Erastin/DMSO)", "value": 0.07658}, {"measurement": "C32:1 PC Erastin/DMSO", "value": 0.9998}, {"measurement": "C32:1 PC log2 (Erastin/DMSO)", "value": "−0.0003379"}, {"measurement": "C32:1 PE Erastin/DMSO", "value": 1.024}, {"measurement": "C32:1 PE log2 (Erastin/DMSO)", "value": 0.03411}, {"measurement": "C32:1 PI Erastin/DMSO", "value": 1.261}, {"measurement": "C32:1 PI log2 (Erastin/DMSO)", "value": 0.3346}, {"measurement": "C32:2 PC Erastin/DMSO", "value": 1.218}, {"measurement": "C32:2 PC log2 (Erastin/DMSO)", "value": 0.2847}, {"measurement": "C32:2 PE Erastin/DMSO", "value": 1.018}, {"measurement": "C32:2 PE log2 (Erastin/DMSO)", "value": 0.02554}, {"measurement": "C34:0 PC Erastin/DMSO", "value": 0.7975}, {"measurement": "C34:0 PC log2 (Erastin/DMSO)", "value": "−0.3264"}, {"measurement": "C34:0 PE Erastin/DMSO", "value": 0.9533}, {"measurement": "C34:0 PE log2 (Erastin/DMSO)", "value": "−0.06907"}, {"measurement": "C34:1 DAG Erastin/DMSO", "value": 0.8823}, {"measurement": "C34:1 DAG log2 (Erastin/DMSO)", "value": "−0.1807"}, {"measurement": "C34:1 PC Erastin/DMSO", "value": 0.8993}, {"measurement": "C34:1 PC log2 (Erastin/DMSO)", "value": "−0.1531"}, {"measurement": "C34:1 PE Erastin/DMSO", "value": 1.04}, {"measurement": "C34:1 PE log2 (Erastin/DMSO)", "value": 0.05679}, {"measurement": "C34:1 PI Erastin/DMSO", "value": 1.173}, {"measurement": "C34:1 PI log2 (Erastin/DMSO)", "value": 0.2306}, {"measurement": "C34:2 DAG Erastin/DMSO", "value": 1.089}, {"measurement": "C34:2 DAG log2 (Erastin/DMSO)", "value": 0.1227}, {"measurement": "C34:2 PC Erastin/DMSO", "value": 1.049}, {"measurement": "C34:2 PC log2 (Erastin/DMSO)", "value": 0.06833}, {"measurement": "C34:2 PE Erastin/DMSO", "value": 0.982}, {"measurement": "C34:2 PE log2 (Erastin/DMSO)", "value": "−0.02619"}, {"measurement": "C34:2 PI Erastin/DMSO", "value": 1.286}, {"measurement": "C34:2 PI log2 (Erastin/DMSO)", "value": 0.3633}, {"measurement": "C34:3 PC Erastin/DMSO", "value": 1.134}, {"measurement": "C34:3 PC log2 (Erastin/DMSO)", "value": 0.1814}, {"measurement": "C34:4 PC Erastin/DMSO", "value": 1.086}, {"measurement": "C34:4 PC log2 (Erastin/DMSO)", "value": 0.119}, {"measurement": "C36:0 PC Erastin/DMSO", "value": 0.6501}, {"measurement": "C36:0 PC log2 (Erastin/DMSO)", "value": "−0.6212"}, {"measurement": "C36:0 PE Erastin/DMSO", "value": 0.9538}, {"measurement": "C36:0 PE log2 (Erastin/DMSO)", "value": "−0.06821"}, {"measurement": "C36:0 PI Erastin/DMSO", "value": 1.006}, {"measurement": "C36:0 PI log2 (Erastin/DMSO)", "value": 0.009131}]}]}
